From US10106565B2 (priority 2008, dated 2018) come the findings set out here.

For experiment [1], the system named is purified CD4 T lymphocytes. The class given is cell-based, human. To be noted: 20 μM dendrimer; anti-CD3/anti-CD28 microbeads and IL2; without dendrimer 88%. The method, then: PBMC from adult healthy volunteers are prepared as described in example 5.1.
CD4 T lymphocytes are then purified from PBMC by positive selection using microbeads conjugated with anti-CD4 mAb, according to the manufacturer's instructions (Miltenyi Biotec). The cells obtained after the purification are >98% pure (as verified by flow cytometry).
Purified CD4 T lymphocytes are cultured at a final concentration of 1.5×10^6 cells/mL in complete RPMI 1640 medium (as described in example 5.1). Then, their proliferation is triggered by microbeads coated with anti-CD3 and anti-CD28 mAbs (Dynabeads®, Dynal Biotech ASA). Dendrimer Gc1 and its analogs are made soluble in sterile water at 2 mM and filtered through a 0.2 μm membrane before use at 20 μM in culture.
Proliferation of purified CD4 T lymphocytes is evaluated by flow cytometry by analyzing the intracellular dilution of a fluorescent probe: the CFSE.

The subject of another experiment is CD4 T cells. Kind of experiment: Allogenic mixed leucocyte reaction (MLR) with activated monocytes. The conditions noted are these: 20 μM, 24 hours activation; PBL:monocyte ratios 4:1 to 100:1; vs alt- and class-monocytes. It counts as cell-based, human. As to the method: For the functional experiments, freshly purified monocytes are cultured in 6-well plates. The cells are stimulated for 24 hours (immunophenotyping by flow cytometry analyses, MLR) or 96 hours (CD206 detection) with different stimuli or remain untreated (control). Dendrimer-activated monocytes (da-monocytes) are obtained with 20 μM of the dendrimer Gc1, alternatively-activated monocytes (alt-monocytes) with 10 U/mL recombinant human IL4 (Peprotech). The classical activation of monocytes is obtained by priming the cells over night (18 hours) with 100 U/mL of human recombinant IFN-γ (R&D Systems) and, after a washing step in PBS, by stimulation with 10 ng/mL LPS from E. coli 011/B4 strain (InvivoGen) for the remaining 6 hours or […].
MLR are performed in 96-well round bottom plates in a total volume of 200 μL in complete RPMI 1640 medium. […] The proliferation of the CD4 T cells is analyzed by measuring the cytoplasmic dilution of CFSE (as described in 5.1. Methods). […] Then, CFSE dilution is analyzed by flow cytometry to measure the proliferation of alloantigen-induced CD4 T cells. After gating for CD4 positive cells CFSE fluorescence intensities are analyzed, and the percentage of CD4 T cells which have proliferated during the MLR is taken into account. […] The overall differences are evaluated by analysis of variance test (ANOVA) with Sigma Stat software (Systat Software).

The test system of the next experiment is human monocytes. In words: Differentiation of monocytes in osteoclasts (M-CSF and sRANK-Ligand). It counts as cell-based. The method, then:
PBMC from adult healthy volunteers are prepared as described in example 1.
Monocytes are then purified by negative selection using a kit containing a mixture of mouse anti-human mAbs and superparamagnetic polystyrene beads coated with a human anti-mouse IgG mAbs, according to the manufacturer's instructions (Dynal). The cells obtained after the purification are >90% pure.
Pure monocytes are activated or not during 6 hours with 20 μM of dendrimer Gc1. After three washings, activated and not activated monocytes are cultured for 21 days in α-MEM complete medium, i.e. supplemented with 10% of heat inactivated fetal calf serum (FCS) (Invitrogen), 2 mM L-glutamine, 100 U/mL penicillin and 100 μg/mL streptomycin (Cambrex Bioscience) in presence or not of 20 μM of dendrimer Gc1. To generate osteoclasts, 50 ng/mL of M-CSF (PeproTech) and 30 ng/mL of sRANK-Ligand (PeproTech) are added to the culture medium. Each three days, half medium is changed and 25 ng/mL of M-CSF and 100 ng/mL of sRANK-Ligand are added. At day 21, the cells are fixed and stained with the leucocyte phosphatase acid kit according to the manufacturer's instructions (Sigma-Aldrich).

The next experiment concerns IL-1ra−/− mice. Kind of experiment: Spontaneous arthritis in IL-1ra-/- mice. The class given is in vivo. To be noted: 10 mg/kg weekly intravenous from 8 weeks of age; at the age of 15 weeks. The source says:
Dendrimer ABP (azabisphosphonate) or Gc1 (FIG. 16A) was initially compared to two other dendrimer-based systems, dendrimer azamonophosphonate (AMP) and dendrimer polypropyleneimine (PPI), for antiarthritic activity in mice, according to the following protocole, described by Hayder et al. Science Transl. Med. 2011, 3, 81ra35.
IL-1ra−/− mice develop spontaneous arthritis beginning at 4 weeks of age. By 10 weeks, 100% of mice show full-blown disease, with marked paw swelling. We assessed the effect of dendrimers ABP, AMP, and PPI in this model of arthritis via weekly intravenous injections (10 mg/kg) starting at 8 weeks of age. The evolution of inflammation and arthritis was followed by measuring the hind paw swelling and by clinical arthritic score. The arthritic score per animal was the sum of the scores attributed to the four paws (28).

Experiment [2] concerns mice immunized against myelin oligodendrocyte protein peptide 35-55. In words: Experimental Autoimmune Encephalomyelitis (EAE) mouse model. The class given is in vivo. The conditions noted are these: 45 days post-immunization, control about 4. The source says: Experimental Autoimmune Encephalomyelitis (EAE) is an inflammatory disease of the Central Nervous System (CNS) that shares clinical and immunopathological similarities with Multiple Sclerosis (MS). The model we have chosen is the classical model of active EAE induced by an immunization against myelin oligodendrocyte protein (MΦG) peptide 35-55 in mice. This leads to a chronic-progressive form of EAE resembling MS. Therefore, it is considered as a good model. Disease severity is scored on a clinical scale of 0 to 5 (0 being no detectable sign of EAE, 4 being tetraparalysis and 5 moribund or death). After MΦG-immunization, EAE scores for motor functions have been evaluated daily for 45 days for each animal. A preventive protocol (FIG. 17A) and a therapeutic protocol (FIG. 17B) have been tested. In both cases, mice are immunized with the MΦG peptide at Day 0 (first arrow of FIGS. 17A and 17B, corresponding to day 0 post-immunization). In the preventive protocol, intravenous administration of 10 mg/kg of dendrimer ABP started at Day 1 (FIG. 17A, second arrow, corresponding to 1 day post-immunization) and then every three days. In the therapeutic protocol, administration of ABP started once the disease is established at Day 18 (FIG. 17B, second arrow, corresponding to 18 days post-immunization), in the same conditions as the preventive protocol.

With `CN(/N=C/c1ccc(OP2(Oc3ccc(/C=N/N(C)P(=S)(Oc4ccc(CCN(CP(=O)(O)O)CP(=O)(O)O)cc4)Oc4ccc(CCN(CP(=O)(O)O)CP(=O)(O)O)cc4)cc3)=NP(Oc3ccc(/C=N/N(C)P(=S)(Oc4ccc(CCN(CP(=O)(O)O)CP(=O)(O)O)cc4)Oc4ccc(CCN(CP(=O)(O)O)CP(=O)(O)O)cc4)cc3)(Oc3ccc(/C=N/N(C)P(=S)(Oc4ccc(CCN(CP(=O)(O)O)CP(=O)(O)O)cc4)Oc4ccc(CCN(CP(=O)(O)O)CP(=O)(O)O)cc4)cc3)=NP(Oc3ccc(/C=N/N(C)P(=S)(Oc4ccc(CCN(CP(=O)(O)O)CP(=O)(O)O)cc4)Oc4ccc(CCN(CP(=O)(O)O)CP(=O)(O)O)cc4)cc3)(c3ccc(/C=N/N(C)P(=S)(Oc4ccc(CCN(CP(=O)(O)O)CP(=O)(O)O)cc4)Oc4ccc(CCN(CP(=O)(O)O)CP(=O)(O)O)cc4)cc3)=N2)cc1)P(=S)(Oc1ccc(CCN(CP(=O)(O)O)CP(=O)(O)O)cc1)Oc1ccc(CCN(CP(=O)(O)O)CP(=O)(O)O)cc1` (centres unmarked) [Gc1], the “purified CD4 T lymphocytes that have divided” value in experiment [1] came to 10.2%. Also, the “MLR activation (divided CD4+ T lymphocytes) by da-monocytes” value in the experiment on CD4 T cells is “lowest activating effect on MLR”. Besides, the “differentiation of human monocytes in osteoclasts” value with human monocytes (20 μM added in the culture medium, 21 days) is listed as “inhibits”; with human monocytes (monocytes pre-incubated with 20 μM during 6 hours, then rinsed), “inhibition”. The arthritic score entry in the experiment on IL-1ra−/− mice is recorded as “significant decrease”. Also, the paw swelling result in the experiment with IL-1ra−/− mice is “significant decrease”. Moreover, the “disease severity clinical score (EAE, scale 0 to 5)” value in experiment [2] (preventive protocol: 10 mg/kg intravenous from Day 1, every three days) is recorded as “less than 1”; in experiment [2] (therapeutic protocol: 10 mg/kg intravenous from Day 18, every three days), “about 1”.
